Data from US20050079152A1, “Methods of elicit, enhance and sustain immune responses against MHC class I-restricted epitopes, for prophylactic or therapeutic purposes” (priority 2003, published 2005).

Tested on: SSX241-49 epitope specific T cells
Assay: SSX2 tetramer staining in immunized mice
Assay type: in vivo
Settings: for SSX2 antigen specificity, % of the available CD8 T cells (tetramer): entrained with pCBP plasmid, amplified with peptide analogue; for cross-reactivity with T cells specific for the SSX241-49 epitope: mouse, in vivo
Excerpt: These analogues are cross-reactive with T cells specific for the SSX241-49 epitope. These examples illustrate that the entrain-and-amplify protocol can elicit a SSX2 antigen specificity that approaches 80% of the available CD8 T cells. The pCBP plasmid and principles of its design are disclosed in U.S. patent application Ser. No. 10/292,413 (Pub. No. 20030228634 A1) entitled EXPRESSION VECTORS ENCODING EPITOPES OF TARGET-ASSOCIATED ANTIGENS AND METHODS FOR THEIR DESIGN, which is hereby incorporated by reference in its entirety. Additional methodology, compositions, peptides, and peptide analogues are disclosed in U.S. Provisional Application No. ______, (Attorney Docket MANNK.038PR), filed on the same date as the instant application, entitled “SSX-2 PEPTIDE ANALOGS;” which is incorporated herein by reference in its entirety. Further methodology, compositions, peptides., and peptide analogues are disclosed in U.S. Provisional Application No. ______, (Attorney Docket MANNK.039PR), filed on the same date as the instant application, entitled “NY-ESO PEPTIDE ANALOGS;” which is incorporated herein by reference in its entirety.

| Substance | SSX2 antigen specificity, % of the available CD8 T cells (tetramer) [%] | cross-reactivity with T cells specific for the SSX241-49 epitope |
| --- | --- | --- |
| SSX241-49 K41F: K41F peptide analogue of SSX2-derived epitope KASEKIFYV (SSX2 41-49) (FASEKIFYV) | ~80 | cross-reactive |
| K41Y: K41Y peptide analogue of SSX2-derived epitope KASEKIFYV (SSX2 41-49) (YASEKIFYV) | ~80 | cross-reactive |
